Experimental findings from patent publication US20230384333A1 (priority 2020, published 2023) are described below.

In experiment [1] the target is T1, psychLight1 (Homo sapiens, UniProt P28223, E264Q/I181A). The experiment is classed as cell-based.
A further experiment relates to psychLight. Briefly: Schild regression analysis in PSYLI2 cells. In kind it is cell-based, human. As to the method:
During imaging, […] of imaging media were added to each well of the assay plate. Wells were then imaged on a Lecia DMi8 using Leica Application Suite X (V3.6.0.20104) at 40×(N.A.=0.6) with 5 regions of interest (ROI) taken per well using the default 5 ROI pattern for each well with no bias to location and no overlap of the ROIs (exposure=350 ms, LED power=80%). Next, […] from the treatment plate was transferred to the assay plate for a final 1:1000 dilution of drug. All final drug treatments contained 0.1% DMSO. After 5 min of incubation, the same sites were re-imaged using the same settings. The data analysis method was the same as in agonist and antagonist mode.

The subject of another experiment is psychLight2. As to the kind of experiment: PSYLI2 high-content imaging, agonist mode. Further details: dose or concentration left out as unconfirmed. In kind it is cell-based, human.
In experiment [2] the target is T1, psychLight1. Briefly: cell-based. In kind it is cell-based. Further details: fluorescence intensity change, confocal with psychLight1: dose or concentration left out as unconfirmed. The note with it: n=3. Here is the method:
HEK293T cells were grown in DMEM, supplemented with fetal bovine serum (FBS) and penicillin-streptomycin. Cells were trans-fected with Effectene according to the manufacturer's instructions. Prior to imaging, cells were washed with Hank's Balanced Salt Solution (HBSS) supplemented with 2 mM MgCl2 and 2 mM CaCl2). All images were collected in HBSS containing Mg^2+ and Ca^2+.
HEK293T cells were plated and transfected concurrently 24 h prior to each experiment using the QIAGEN Effectene Transfection
Dose-response experiments were performed using an Automate Perfusion System. Cells (HEK293T) were grown on 12 mm cover-slips and transfected with psychLight1. The coverslips were then placed into a coverslip holder and washed with 5 mL of HBSS containing 2 mM MgCl2 and 2 mM CaCl2). Cells were perfused first with 5 mL of 0.1% DMSO, then drugs in ascending concentrations from 1 pM to […] were added, with the concentration of DMSO being held constant at 0.10%. […] For the competition studies described in FIG. 19, HEK293T cells were prepared as described above; however, the cells were first exposed to 5 mL of 0.2% DMSO. […] Analysis was performed by taking 3 ROIs on the cell membrane using ImageJ and calculating the mean intensity for each ROI across the time-points. Finally, the DF/F was calculated using the average of the baseline (0.1 or 0.2% DMSO) and the average intensity between each dosage over the average of the baseline.

Entries after “also recorded” stand apart in the source; their conditions may differ.

T1 sequence (P28223 whole entry I181A/E264Q, looked up): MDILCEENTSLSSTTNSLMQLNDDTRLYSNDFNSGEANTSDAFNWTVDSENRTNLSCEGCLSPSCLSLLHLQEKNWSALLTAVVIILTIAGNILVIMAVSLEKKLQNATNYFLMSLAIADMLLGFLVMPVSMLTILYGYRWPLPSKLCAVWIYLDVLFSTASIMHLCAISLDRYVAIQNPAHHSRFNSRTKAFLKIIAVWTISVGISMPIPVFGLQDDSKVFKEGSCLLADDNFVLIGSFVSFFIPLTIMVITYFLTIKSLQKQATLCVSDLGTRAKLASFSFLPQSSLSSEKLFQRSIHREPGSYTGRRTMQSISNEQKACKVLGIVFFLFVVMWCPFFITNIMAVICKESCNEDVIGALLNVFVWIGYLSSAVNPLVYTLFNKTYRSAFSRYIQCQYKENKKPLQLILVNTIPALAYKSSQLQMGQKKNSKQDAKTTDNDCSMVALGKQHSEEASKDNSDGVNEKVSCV

With `COc1ccc2c(CCN(C)C)c[nH]c2c1` [6-MeO, 6-methoxy-N,N-dimethyltrypta-mine], the “binding shown by competing off 5-HT” value at psychLight1 [1] is recorded as “capable of binding to the receptor despite the fact that they lack efficacy; also recorded: capable of binding to the receptor despite lacking efficacy; also recorded: can compete off 5-HT resulting in a reduction in psychLight fluorescence”. Moreover, the “Schild regression (pA2) outcome” value in the experiment with psychLight was “significantly less potent”. The “fluorescence intensity change, high content imager with psychLight2” value with psychLight2 is −3.0±2.7%. Moreover, the “fluorescence intensity change, confocal with psychLight1” value at psychLight1 [2] was −1.1±4.6%.
